In US9340559B2, “Proteasome inhibitor delanzomib for use in the treatment of lupus” (Cephalon, Inc., priority 2011, dated 2016):

Key:
Assay type in all cases: in vivo, mouse
MRL/lpr mice = assay: Antibody secreting B-cell Elispot (anti-Smith Ag, anti-dsDNA, anti-chromatin ASC), spleens of MRL/lpr mice; conditions: G6: 1.5 mg/kg ip, 3× wk
Procedure: (§1) FIG. 9 depicts frequency of anti-Smith antigen and anti-dsDNA antibody secreting cells in the spleens of MRL/lpr mice. MRL/lpr treated mice spleens were processed for splenocytes for ex vivo Elispot assays. Elispot wells were coated with 10 μg/mL of smith antigen, dsDNA or ovalbumin protein. Fresh, whole splenocytes were added to each well at 500,000 cells per well in cell culture medium. Cells were incubated overnight at 37° C. Developed wells provided spots that were counted as frequency of ASCs per million splenocytes.
as §1, with “10” for “9”, “depicts the” for “depicts”, “anti-chromatin” for “anti-Smith antigen and anti-dsDNA”, “boiled chicken chromatin” for “smith antigen, dsDNA”, “[…]” for “500,000”
B-cell Elispot components are ordered from MabTech (Nacka Strand, Sweden) and nitrocellulose IP filter plates are ordered from Millipore (Billerica, Mass.). Elispot wells are coated with either purified bovine thymus dsDNA (Sigma), purified bovine Smith antigen (GenWay) or boiled filtered purified chicken chromatin from lysed chicken red blood cells (Rockland, Gilbertsville, Pa.) at 10 μg/mL. Spleens are processed using glass homogenization, filtered through a 60 μm sterile cell strainer and red blood cells (RBCs) lysed using BioLegend (San Diego, Calif.) lysis buffer. Processed splenocytes are added to each well in culture medium. To avoid skewing of true ex vivo frequencies of antibody secreting cell types (ASCs), cells are not stimulated with a polyclonal mitogen like LPS, but rather incubated in media alone to allow monitoring of genuine ex vivo antibody release. Anti-mouse pan-IgG is used as a positive control for total IgG producing ASCs and is used to normalize results. Frequencies for each antigen are identified in an initial test phase for each model. For chromatin and total IgG only, 30,000 splenocytes are added to each well; for Smith antigen and dsDNA, 500,000 cells are added to each well. Different numbers of splenocytes are added for different antigens due to saturation limits of spot frequencies per well. These limits are previously established. B-cell Elispots are incubated overnight at 37° C. To develop each assay, secondary antibody is added to each well, incubated, washed and alkaline phosphatase strepavidin is used as the conjugate; substrate used is BCIP-NBT. Plates are developed until spots are visible. All Elispot analyses are performed using an Immunospot C.T.L. scanner and Biospot software (Cellular Technology Ltd., Shaker Heights, Ohio). Results are shown as values from which media and cells only wells are subtracted. Some values are negative due to high background.

NZM mice [1] = assay: Survival, NZM lupus nephritis model, ip dosing (Example 2); conditions: G5 1.5 mg/kg ip, 3× wk
NZM mice [2] = test system: NZM mice

C[C@@H]1C[C@H]2[C@@H]3CCC4=CC(=O)C=C[C@]4(C)[C@@]3(F)[C@@H](O)C[C@]2(C)[C@@]1(O)C(=O)CO [dexamethasone, Dexamethasone, reference compound]
ASC EOS Smith Ag, percent change vs vehicle (MRL/lpr mice): +40%
ASC EOS chromatin, percent change vs vehicle (MRL/lpr mice): −22%
ASC EOS dsDNA, percent change vs vehicle (MRL/lpr mice): +129%
EOS survival, percent live mice from original number (NZM mice [1]): 10%
Cytokine IL-12 AUC, percent change vs vehicle (NZM mice [2]; G5 1.5 mg/kg ip, 3× wk): −48%
Cytokine IL-13 AUC, percent change vs vehicle (NZM mice [2]; G5 1.5 mg/kg ip, 3× wk): −56%
Cytokine IL-17A AUC, percent change vs vehicle (NZM mice [2]; G5 1.5 mg/kg ip, 3× wk): −55%
Cytokine IP-10 AUC, percent change vs vehicle (NZM mice [2]; G5 1.5 mg/kg ip, 3× wk): −37%
Cytokine MIG AUC, percent change vs vehicle (NZM mice [2]; G5 1.5 mg/kg ip, 3× wk): −68%
Cytokine TNFα AUC, percent change vs vehicle (NZM mice [2]; G5 1.5 mg/kg ip, 3× wk): 79%
p, serum IL-12p40/p70 concentration vs G5 Bortezomib 0.3 mg/kg 1× wk ip (NZM mice [2]; G8 1.5 mg/kg 3× wk ip): NS (NS = not significant (p > 0.05))
p, serum IL-12p40/p70 concentration vs G6 Bortezomib 0.3 mg/kg 2× wk ip (NZM mice [2]; G8 1.5 mg/kg 3× wk ip): NS (NS = not significant (p > 0.05))
p, serum IL-12p40/p70 concentration vs G7 CTX 50 mg/kg 1× wk ip (NZM mice [2]; G8 1.5 mg/kg 3× wk ip): NS (NS = not significant (p > 0.05))
p, serum IL-12p40/p70 concentration vs G9 Vehicle 1× wk ip (NZM mice [2]; G8 1.5 mg/kg 3× wk ip): NS (NS = not significant (p > 0.05))
p, serum IL-13 concentration vs G5 Bortezomib 0.3 mg/kg 1× wk ip (NZM mice [2]; G8 1.5 mg/kg 3× wk ip): NS (NS = not significant (p > 0.05))
p, serum IL-13 concentration vs G6 Bortezomib 0.3 mg/kg 2× wk ip (NZM mice [2]; G8 1.5 mg/kg 3× wk ip): NS (NS = not significant (p > 0.05))
p, serum IL-13 concentration vs G7 CTX 50 mg/kg 1× wk ip (NZM mice [2]; G8 1.5 mg/kg 3× wk ip): p < 0.001
p, serum IL-13 concentration vs G9 Vehicle 1× wk ip (NZM mice [2]; G8 1.5 mg/kg 3× wk ip): NS (NS = not significant (p > 0.05))
p, serum IL-17A concentration vs G5 Bortezomib 0.3 mg/kg 1× wk ip (NZM mice [2]; G8 1.5 mg/kg 3× wk ip): NS (NS = not significant (p > 0.05))
p, serum IL-17A concentration vs G6 Bortezomib 0.3 mg/kg 2× wk ip (NZM mice [2]; G8 1.5 mg/kg 3× wk ip): NS (NS = not significant (p > 0.05))
p, serum IL-17A concentration vs G7 CTX 50 mg/kg 1× wk ip (NZM mice [2]; G8 1.5 mg/kg 3× wk ip): p < 0.001
p, serum IL-17A concentration vs G9 Vehicle 1× wk ip (NZM mice [2]; G8 1.5 mg/kg 3× wk ip): NS (NS = not significant (p > 0.05))
p, serum IP-10 concentration vs G5 Bortezomib 0.3 mg/kg 1× wk ip (NZM mice [2]; G8 1.5 mg/kg 3× wk ip): NS (NS = not significant (p > 0.05))
p, serum IP-10 concentration vs G6 Bortezomib 0.3 mg/kg 2× wk ip (NZM mice [2]; G8 1.5 mg/kg 3× wk ip): NS (NS = not significant (p > 0.05))
p, serum IP-10 concentration vs G7 CTX 50 mg/kg 1× wk ip (NZM mice [2]; G8 1.5 mg/kg 3× wk ip): p < 0.001
p, serum IP-10 concentration vs G9 Vehicle 1× wk ip (NZM mice [2]; G8 1.5 mg/kg 3× wk ip): p < 0.001
p, serum MIG concentration vs G5 Bortezomib 0.3 mg/kg 1× wk ip (NZM mice [2]; G8 1.5 mg/kg 3× wk ip): NS (NS = not significant (p > 0.05))
p, serum MIG concentration vs G6 Bortezomib 0.3 mg/kg 2× wk ip (NZM mice [2]; G8 1.5 mg/kg 3× wk ip): NS (NS = not significant (p > 0.05))
p, serum MIG concentration vs G7 CTX 50 mg/kg 1× wk ip (NZM mice [2]; G8 1.5 mg/kg 3× wk ip): p < 0.001
p, serum MIG concentration vs G9 Vehicle 1× wk ip (NZM mice [2]; G8 1.5 mg/kg 3× wk ip): NS (NS = not significant (p > 0.05))
p, serum TNFα concentration vs G5 Bortezomib 0.3 mg/kg 1× wk ip (NZM mice [2]; G8 1.5 mg/kg 3× wk ip): NS (NS = not significant (p > 0.05))
p, serum TNFα concentration vs G6 Bortezomib 0.3 mg/kg 2× wk ip (NZM mice [2]; G8 1.5 mg/kg 3× wk ip): p <0.01
p, serum TNFα concentration vs G7 CTX 50 mg/kg 1× wk ip (NZM mice [2]; G8 1.5 mg/kg 3× wk ip): p <0.05
p, serum TNFα concentration vs G9 Vehicle 1× wk ip (NZM mice [2]; G8 1.5 mg/kg 3× wk ip): NS (NS = not significant (p > 0.05))
